Data from PubChem BioAssay (NCI).
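Briefly, cells in 96-well plates were exposed to five compound concentrations for 48 h, and endpoints were estimated by linear interpolation. GI50 = concentration required for 50% inhibition of growth. The concentration for full growth arrest is given as TGI.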

Key:
Assay in all cases: NCI anticancer screen, dose series, 48 h
[1] = system: SW-620 colon
[2] = system: HCT-15 colon
[3] = system: NCI-H522 lung
[4] = system: SNB-19 CNS
[5] = system: COLO 205 colon
[6] = system: HCT-116 colon
[7] = system: 786-0 renal
[8] = system: CAKI-1 renal
[9] = system: DU-145 prostate
[10] = system: BT-549 breast
[11] = system: MDA-MB-435
[12] = system: A549 NSCLC
[13] = system: IGROV1 ovarian
[14] = system: NCI-H23 lung
[15] = system: UACC-62 melanoma
[16] = system: ACHN renal
[17] = system: HL-60(TB) leukemia
[18] = system: MALME-3M melanoma
[19] = system: EKVX NSCLC
[20] = system: SK-MEL-5 melanoma
[21] = system: MOLT-4 leukemia
[22] = system: PC-3 prostate
[23] = system: HOP-62 NSCLC
[24] = system: RXF 393 renal
[25] = system: MDA-MB-231 breast
[26] = system: SK-MEL-28 melanoma
[27] = system: HS 578T breast
[28] = system: OVCAR-4 ovarian
[29] = system: U251 CNS
[30] = system: NCI-H226 lung
[31] = system: HCC-2998 colon
[32] = system: NCI/ADR-RES ovarian
[33] = system: SNB-75 CNS
[34] = system: SN12C renal
[35] = system: SK-MEL-2 melanoma
[36] = system: M14 melanoma
[37] = system: OVCAR-8 ovarian
[38] = system: T-47D breast
[39] = system: SF-539 CNS
[40] = system: NCI-H460 lung
[41] = system: TK-10 renal
[42] = system: LOX IMVI melanoma
[43] = system: A498 renal
[44] = system: OVCAR-5 ovarian
[45] = system: UO-31 renal
[46] = system: K-562 leukemia
[47] = system: SF-268 CNS
[48] = system: SR leukemia
[49] = system: RPMI-8226 leukemia
[50] = system: HOP-92 NSCLC
[51] = system: OVCAR-3 ovarian
[52] = system: SK-OV-3 ovarian
[53] = system: UACC-257 melanoma
[54] = system: KM12 colon
[55] = system: HT29 colon
[56] = system: MCF7 breast
[57] = system: CCRF-CEM leukemia
[58] = system: SF-295 CNS

Q: With `N#Cc1c(-c2ccccc2)cc(-c2ccccc2)n(CCCCC(=O)NO)c1=O` as the molecule, how does the GI50 [1] read?
A: 2.95 µM

Q: And the TGI [1]?
A: 11.9 µM

Q: What about the GI50 [2] of the same molecule?
A: 0.57 µM

Q: What about the TGI [2] of the same molecule?
A: 13.6 µM

Q: And the GI50 [3]?
A: 2.06 µM

Q: What about the TGI [3] of the same molecule?
A: 8.36 µM

Q: What about the GI50 [4] of the same molecule?
A: 3.53 µM

Q: What about the TGI [4] of the same molecule?
A: 15.6 µM

Q: And the GI50 [5]?
A: 2.74 µM

Q: And the TGI [5]?
A: 7.76 µM

Q: What about the GI50 [6] of the same molecule?
A: 2.37 µM

Q: What about the TGI [6] of the same molecule?
A: 10.1 µM

Q: And the GI50 [7]?
A: 2.83 µM

Q: And the TGI [7]?
A: 9.13 µM

Q: What about the GI50 [8] of the same molecule?
A: 1.61 µM

Q: And the TGI [8]?
A: 3.9 µM

Q: What about the GI50 [9] of the same molecule?
A: 2.96 µM

Q: What about the TGI [9] of the same molecule?
A: 11.3 µM

Q: What about the GI50 [10] of the same molecule?
A: 3.65 µM

Q: And the TGI [10]?
A: 16.4 µM

Q: And the GI50 [11]?
A: 2.4 µM

Q: What about the TGI [11] of the same molecule?
A: 11.5 µM

Q: And the GI50 [12]?
A: 3.29 µM

Q: What about the TGI [12] of the same molecule?
A: 15.7 µM

Q: And the GI50 [13]?
A: 2.48 µM

Q: What about the TGI [13] of the same molecule?
A: 9.34 µM

Q: And the GI50 [14]?
A: 2.4 µM

Q: What about the TGI [14] of the same molecule?
A: 6.94 µM

Q: And the GI50 [15]?
A: 2.2 µM

Q: And the TGI [15]?
A: 6.02 µM

Q: And the GI50 [16]?
A: 2.32 µM

Q: And the TGI [16]?
A: 7.91 µM

Q: And the GI50 [17]?
A: 2.39 µM

Q: What about the TGI [17] of the same molecule?
A: 6.84 µM

Q: What about the GI50 [18] of the same molecule?
A: 1.25 µM

Q: What about the TGI [18] of the same molecule?
A: 13.3 µM

Q: And the GI50 [19]?
A: 2.82 µM

Q: And the TGI [19]?
A: 11.7 µM

Q: And the GI50 [20]?
A: 1.84 µM

Q: What about the TGI [20] of the same molecule?
A: 3.59 µM

Q: And the GI50 [21]?
A: 1.84 µM

Q: What about the TGI [21] of the same molecule?
A: 8.83 µM

Q: And the GI50 [22]?
A: 2.72 µM

Q: And the TGI [22]?
A: 15.9 µM

Q: And the GI50 [23]?
A: 2.24 µM

Q: And the TGI [23]?
A: 7.35 µM

Q: And the GI50 [24]?
A: 1.43 µM

Q: And the TGI [24]?
A: 3.36 µM

Q: What about the GI50 [25] of the same molecule?
A: 3.27 µM

Q: And the TGI [25]?
A: 10.1 µM

Q: And the GI50 [26]?
A: 2.8 µM

Q: And the TGI [26]?
A: 10.4 µM

Q: And the GI50 [27]?
A: 2.03 µM

Q: And the TGI [27]?
A: 8.18 µM

Q: What about the GI50 [28] of the same molecule?
A: 2.74 µM

Q: What about the TGI [28] of the same molecule?
A: 16.5 µM

Q: What about the GI50 [29] of the same molecule?
A: 2.79 µM

Q: What about the TGI [29] of the same molecule?
A: 11.1 µM

Q: And the GI50 [30]?
A: 3.98 µM

Q: And the TGI [30]?
A: 19 µM

Q: What about the GI50 [31] of the same molecule?
A: 2.65 µM

Q: And the TGI [31]?
A: 10.8 µM

Q: What about the GI50 [32] of the same molecule?
A: 0.703 µM

Q: What about the TGI [32] of the same molecule?
A: 3.18 µM

Q: And the GI50 [33]?
A: 1.61 µM

Q: And the TGI [33]?
A: 9.07 µM

Q: And the GI50 [34]?
A: 2.95 µM

Q: What about the TGI [34] of the same molecule?
A: 11.5 µM

Q: And the GI50 [35]?
A: 3.21 µM

Q: What about the TGI [35] of the same molecule?
A: 14.1 µM

Q: And the GI50 [36]?
A: 2.76 µM

Q: What about the TGI [36] of the same molecule?
A: 11.6 µM

Q: What about the GI50 [37] of the same molecule?
A: 2.16 µM

Q: What about the TGI [37] of the same molecule?
A: 14 µM

Q: What about the GI50 [38] of the same molecule?
A: 1.93 µM

Q: What about the TGI [38] of the same molecule?
A: 7.99 µM

Q: What about the GI50 [39] of the same molecule?
A: 2.51 µM

Q: And the TGI [39]?
A: 10.4 µM

Q: And the GI50 [40]?
A: 3.71 µM

Q: What about the TGI [40] of the same molecule?
A: 15.2 µM

Q: What about the GI50 [41] of the same molecule?
A: 2.5 µM

Q: And the TGI [41]?
A: 11.2 µM

Q: And the GI50 [42]?
A: 1.71 µM

Q: What about the TGI [42] of the same molecule?
A: 3.22 µM

Q: And the GI50 [43]?
A: 1.25 µM

Q: What about the TGI [43] of the same molecule?
A: 3.55 µM

Q: And the GI50 [44]?
A: 2.6 µM

Q: What about the TGI [44] of the same molecule?
A: 10.9 µM

Q: What about the GI50 [45] of the same molecule?
A: 1.22 µM

Q: What about the TGI [45] of the same molecule?
A: 3.47 µM

Q: And the GI50 [46]?
A: 2.1 µM

Q: And the TGI [46]?
A: 12.4 µM

Q: What about the GI50 [47] of the same molecule?
A: 2.71 µM

Q: What about the TGI [47] of the same molecule?
A: 7.9 µM

Q: And the GI50 [48]?
A: 1.32 µM

Q: And the TGI [48]?
A: 8.37 µM

Q: What about the GI50 [49] of the same molecule?
A: 1.57 µM

Q: What about the TGI [49] of the same molecule?
A: 4.61 µM

Q: What about the GI50 [50] of the same molecule?
A: 2.23 µM

Q: And the TGI [50]?
A: 7.57 µM

Q: What about the GI50 [51] of the same molecule?
A: 2.26 µM

Q: And the TGI [51]?
A: 7.49 µM

Q: And the GI50 [52]?
A: 2.06 µM

Q: And the TGI [52]?
A: 5 µM

Q: What about the GI50 [53] of the same molecule?
A: 2.15 µM

Q: What about the TGI [53] of the same molecule?
A: 12.4 µM

Q: And the GI50 [54]?
A: 2.8 µM

Q: And the TGI [54]?
A: 13.6 µM

Q: What about the GI50 [55] of the same molecule?
A: 3.51 µM

Q: What about the TGI [55] of the same molecule?
A: 13.4 µM

Q: And the GI50 [56]?
A: 1.79 µM

Q: And the TGI [56]?
A: 11 µM

Q: And the GI50 [57]?
A: 1.68 µM

Q: And the TGI [57]?
A: 6.45 µM

Q: What about the GI50 [58] of the same molecule?
A: 2.13 µM

Q: What about the TGI [58] of the same molecule?
A: 4.56 µM
